What was measured:
Type in all cases: cell-based, human
[1] = system: H0-1; test: Effect of recombinant immune interferon (IFN-γ) on growth (cell numbers); details: 96 hr
Excerpt: (§1) Cell lines and culture conditions. H0-1 is a melanotic melanoma cell line produced from a metastatic inguinal node lesion from a person and was used between passages 170 and 200 (Giovanella et al., 1976; Huberman et al., 1979; Fisher et al., 1985). C8161 is a highly metastatic amelanotic human melanoma cell line derived from an abdominal wall metastasis (Welch et al., 1991). FM516-SV is a normal human melanocyte culture immortalized by the SV40 T-antigen gene (Melber et al., 1989). The WM35 cell line was isolated from a patient with a radial growth phase primary melanoma (Herlyn, 1990). The WM278 cell line is from a patient with an early vertical growth phase primary melanoma (Herlyn, 1990). Cultures were grown at 37° C. in a 95% air 5% C02-humidified incubator in Dulbecco's modified Eagle's medium (DMEM) supplemented with 5 or 10% fetal bovine serum. Cultures were maintained in the logarithmic phase of growth by subculturing (1:5 or 1:10) prior to confluence approximately every 4 to 7 D.

[2] = system: WM35; test: as above; details: 96 hr
Excerpt: as §1

[3] = system: WM278; test: as above; details: 96 hr
Excerpt: as §1

[4] = system: C8161; test: as above; details: 96 hr
Excerpt: as §1

[5] = system: FM516-SV; test: as above; details: 96 hr
Excerpt: as §1

[6] = system: H0-1 cells; test: Effect of interferons on growth of H0-1 cells (FIG. 3); details: 4 d treatment with 100 U/ml interferon
Protocol: FIG. 3. […] Results are the average cell number ±S.D. from the mean.
Experiments were performed to determine if a relationship exists between growth suppression and reduced mda-9 expression. To test this connection, the effect of interferon and MEZ treatment on proliferation and mda-9 expression in human melanoma cells was determined.

Q: Which results are given for “IFN-γ: Recombinant human IFN-γ (type II, immune interferon)”?
A: average cell number ± S.D. ([1]; 1 U/ml of IFN-γ): 15.8 ± 0.5; percent of cell number reduction versus control ([1]; 1 U/ml of IFN-γ): 22%; average cell number ± S.D. ([1]; 10 U/ml of IFN-γ): 15.4 ± 0.3; percent of cell number reduction versus control ([1]; 10 U/ml of IFN-γ): 24%; average cell number ± S.D. ([1]; 100 U/ml of IFN-γ): 11.5 ± 1.3; percent of cell number reduction versus control ([1]; 100 U/ml of IFN-γ): 44%; average cell number ± S.D. ([2]; 1 U/ml of IFN-γ): 84.8 ± 6.7; percent of cell number reduction versus control ([2]; 1 U/ml of IFN-γ): 2%; average cell number ± S.D. ([2]; 10 U/ml of IFN-γ): 62.7 ± 4.3; percent of cell number reduction versus control ([2]; 10 U/ml of IFN-γ): 28%; average cell number ± S.D. ([2]; 100 U/ml of IFN-γ): 28.2 ± 1.7; percent of cell number reduction versus control ([2]; 100 U/ml of IFN-γ): 67%; average cell number ± S.D. ([3]; 1 U/ml of IFN-γ): 14.9 ± 0.8; percent of cell number reduction versus control ([3]; 1 U/ml of IFN-γ): 33%; average cell number ± S.D. ([3]; 10 U/ml of IFN-γ): 12.7 ± 1.0; percent of cell number reduction versus control ([3]; 10 U/ml of IFN-γ): 42%; average cell number ± S.D. ([3]; 100 U/ml of IFN-γ): 12.5 ± 0.6; percent of cell number reduction versus control ([3]; 100 U/ml of IFN-γ): 44%; average cell number ± S.D. ([4]; 1 U/ml of IFN-γ): 24.4 ± 0.8; percent of cell number reduction versus control ([4]; 1 U/ml of IFN-γ): 30%; average cell number ± S.D. ([4]; 10 U/ml of IFN-γ): 25.1 ± 0.8; percent of cell number reduction versus control ([4]; 10 U/ml of IFN-γ): 28%; average cell number ± S.D. ([4]; 100 U/ml of IFN-γ): 22.2 ± 1.4; percent of cell number reduction versus control ([4]; 100 U/ml of IFN-γ): 36%; average cell number ± S.D. ([5]; 1 U/ml of IFN-γ): 16.8 ± 0.5; percent of cell number reduction versus control ([5]; 1 U/ml of IFN-γ): 19%; average cell number ± S.D. ([5]; 10 U/ml of IFN-γ): 9.8 ± 0.6; percent of cell number reduction versus control ([5]; 10 U/ml of IFN-γ): 52%; average cell number ± S.D. ([5]; 100 U/ml of IFN-γ): 5.1 ± 0.3; percent of cell number reduction versus control ([5]; 100 U/ml of IFN-γ): 75%; reduction of H0-1 growth [6]: ~43%

Reference: patent US7339026B2, “mda-9 protein” (The Trustees of Columbia University In the City of New York, priority 1996, dated 2008)
